Publication PMC3656124, “DNA Topoisomerase II Is Involved in Regulation of Cyst Wall Protein Genes and Differentiation in Giardia lamblia” (PLoS Neglected Tropical Diseases, 2013)

Target: T1, Topo II (Giardia duodenalis, UniProt E2RU90)
T1 construct: gene GL50803_0016975
T1 sequence (E2RU90 1-1491): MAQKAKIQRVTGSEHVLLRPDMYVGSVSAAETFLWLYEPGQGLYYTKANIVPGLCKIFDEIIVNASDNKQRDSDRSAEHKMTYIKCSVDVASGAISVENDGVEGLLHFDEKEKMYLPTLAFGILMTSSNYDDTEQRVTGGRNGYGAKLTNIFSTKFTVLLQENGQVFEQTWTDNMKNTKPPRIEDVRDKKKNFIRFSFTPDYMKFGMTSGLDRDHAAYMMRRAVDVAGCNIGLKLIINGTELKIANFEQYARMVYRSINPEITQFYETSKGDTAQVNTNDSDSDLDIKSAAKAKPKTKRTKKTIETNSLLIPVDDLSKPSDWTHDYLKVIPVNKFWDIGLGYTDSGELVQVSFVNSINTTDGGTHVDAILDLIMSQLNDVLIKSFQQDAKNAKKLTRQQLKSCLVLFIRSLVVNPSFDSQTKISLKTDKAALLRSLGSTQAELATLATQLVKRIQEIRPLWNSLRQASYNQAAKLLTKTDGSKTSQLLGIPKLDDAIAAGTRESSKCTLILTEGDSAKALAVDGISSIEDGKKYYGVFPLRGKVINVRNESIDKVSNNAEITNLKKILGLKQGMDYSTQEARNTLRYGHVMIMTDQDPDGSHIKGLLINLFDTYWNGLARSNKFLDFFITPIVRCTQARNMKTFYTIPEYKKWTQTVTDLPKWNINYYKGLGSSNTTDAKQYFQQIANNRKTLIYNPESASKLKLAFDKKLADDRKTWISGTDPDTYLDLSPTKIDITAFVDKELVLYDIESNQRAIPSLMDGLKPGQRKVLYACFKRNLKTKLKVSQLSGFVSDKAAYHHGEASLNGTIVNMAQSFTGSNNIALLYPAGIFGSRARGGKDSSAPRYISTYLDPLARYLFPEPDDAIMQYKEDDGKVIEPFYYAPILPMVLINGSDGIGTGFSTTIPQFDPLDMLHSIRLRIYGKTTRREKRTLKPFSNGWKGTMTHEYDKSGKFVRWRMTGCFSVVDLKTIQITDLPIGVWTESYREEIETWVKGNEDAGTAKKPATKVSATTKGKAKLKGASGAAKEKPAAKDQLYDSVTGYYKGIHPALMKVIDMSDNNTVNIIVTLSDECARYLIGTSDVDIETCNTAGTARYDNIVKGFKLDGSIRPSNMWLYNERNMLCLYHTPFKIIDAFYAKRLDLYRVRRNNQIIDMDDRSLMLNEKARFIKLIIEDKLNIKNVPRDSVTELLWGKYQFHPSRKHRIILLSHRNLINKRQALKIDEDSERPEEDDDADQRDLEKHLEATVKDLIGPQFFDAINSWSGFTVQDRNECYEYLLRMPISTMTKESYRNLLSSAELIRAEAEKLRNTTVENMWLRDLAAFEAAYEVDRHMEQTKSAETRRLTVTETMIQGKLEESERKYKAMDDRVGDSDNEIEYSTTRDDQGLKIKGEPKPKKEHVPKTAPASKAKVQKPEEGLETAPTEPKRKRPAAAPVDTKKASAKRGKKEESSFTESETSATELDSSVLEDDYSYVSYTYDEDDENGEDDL
Assay: pUC119 plasmid DNA cleavage assay, agarose gel
Format: biochemical
Details: 12 mM etoposide in Me2SO (Me2SO alone also raised cleavage); 5 mM Mg2+, pH 7.5, 37 °C; traps cleavage complex

Q: `COc1cc([C@@H]2c3cc4c(cc3[C@@H](O[C@@H]3O[C@@H]5CO[C@@H](C)O[C@H]5[C@H](O)[C@H]3O)[C@H]3COC(=O)[C@H]23)OCO4)cc(OC)c1O` [etoposide] was tested. Which “increase of DNA cleavage activity” value did it give?
A: The value was “addition of etoposide slightly increased DNA cleavage activity of Topo II”.
